In patent publication US8653026B2, “Treatment of type 2 diabetes with FTY720” (Diapin Therapeutics LLC, priority 2011, dated 2014):

How the values were obtained:
PDX-1 = PDX-1 expression in isolated islets from db/db mice; type: in vivo, mouse; conditions: islets from FTY720-treated db/db mice
Method: FIG. 14. PDX-1 expression in the isolated islets from the db/db mice with (+FTY720) or without FTY720 (−FTY720) treatment (*p=0.0006).
Islets were isolated from pancreases removed from the 13-week-old untreated and FTY720-treated db/db mice by Liberase (Roche Diagnostics) digestion, followed by discontinuous Ficoll gradient separation and manual stereomicroscopic selection to exclude contaminating tissues (30). Isolated islets (or INS-1 cells) were cultured in the medium (composed of RPMI 1640 medium supplemented with 10% fetal bovine serum, 2 mM L-glutamine, 1% sodium pyruvate, 50 μM β-mercaptoethanol, 100 units/ml of penicillin, and 100 μg/ml of streptomycin). For treatment of INS-1 cells, the cells were plated in RPMI medium overnight and changed to Hanks' balanced salt solution containing 2 mM glucose and 0.5% FBS overnight. Then the cells were treated with various conditions in the same medium for 24 hours.
Expression of pancreatic and duodenal homeobox 1 (PDX-1), a transcription factor, is required for pancreatic development and β-cell maturation.

db/db mice [1] = assay: Intraperitoneal glucose tolerance test; type: in vivo, mouse; conditions: db/db mice fasted 16 h, i.p. 10% glucose 1 mg/g; treated vs untreated
Method: FIG. 5A. Intraperitoneal glucose tolerance test (GTT). The mice of both groups were fasted for 16 hours and intraperitoneally injected with 10% glucose (1 mg/g body weight). Glucose levels were then measured after 0, 30, 60, 90, 120 min by a Glucometer Elite (Bayer Corp., Elkhart, Ind.). Open circle (∘), FTY720-untreated group; solid circle (●), FTY720-treated group. *p<0.01.
For the glucose tolerance test, the mice were fasted for 16 h and intraperitoneally injected with 10% glucose (1 mg/g of body weight). Glucose levels were then measured after 0, 30, 60, 90, and 120 min by a Glucometer Elite (Bayer Corp., Elkhart, Ind.) (29). For the insulin tolerance test, the mice were fasted for 6 h and injected intraperitoneally with human regular insulin (0.55 units/kg) (Sigma). Tail blood samples were collected at 0, 30, 40, 60, 90, and 120 min for glucose measurement (30, 31).

db/db mice [2] = assay: Fasting serum insulin levels (ELISA) in db/db mice; type: in vivo, mouse; conditions: FTY720-treated vs untreated, after overnight fasting
Text: FIG. 4. Fasting serum insulin levels of the db/db mice with (+FTY720) or without FTY720 (−FTY720) treatment (*p<0.01).
After overnight fasting, blood samples ([…]) were collected in a heparinized microhematocrit tube for the determination of insulin concentration using a Ultra Sensitive Mouse Insulin ELISA Kit (Crystal Chem Inc., Downers Grove, Ill.) (30).

[3] = patients with relapsing multiple sclerosis; cited from earlier work
S1P4 = assay: S1P receptor expression in islets from db/db mice: S1P4; type: in vivo, mouse; conditions: after FTY720 treatment of db/db mice
Text: FIG. 15. Expression of 4 FTY720-bound S1P receptors in the islets isolated from the db/db mice.
FTY720 is phosphorylated in vivo to form FTY720-P that binds S1P1, S1P3, S1P4, and S1P5 but not S1P2 (25). We determined the expression of these receptors in the islets isolated from the untreated and FTY720-treated db/db mice.

[4] = Body weight of db/db mice with or without oral FTY720; type: in vivo, mouse; conditions: FTY720-treated vs untreated group
Method: FIG. 2B. Time course of the body weight of db/db mice with or without oral FTY720. Open circle (∘), FTY720-untreated group; solid circle (●), pre-diabetic db/db mice (Fasting glucose<126 mg/dL) at six-week-old treated with 10 mg/kg FTY720. […]
Animals and Procedures—Five-week-old female db/db mice (BKS.Cg-m+/−Leprdb) were purchased from Jackson Laboratories (Bar Harbor, Me.). […] After 1 week, the fasting glucose levels of the 6-week-old mice were measured. […] Mice in the FTY720-treated group were fed 10 mg/kg of FTY720 daily by feeding tube and their food intake and body weight were measured twice a week. Fasting glucose levels were measured at the end of each week. […] After metabolic analysis, the pancreases were removed from the mice at 13 and 16 weeks of age for immunohistochemical analysis, quantitation of islet area, or islet isolation.

beta-cell = assay: In vivo BrdU incorporation (beta-cell regeneration) in pancreas; design: species or system mouse
Method: FIG. 11. BrdU staining in the pancreatic islets after 6 weeks FTY720 treatment. After overnight fasting, the mice were given 1 mg/ml 5-bromo-2′deoxyuridine (BrdU) intraperitoneally. 24 hours later, mice were sacrificed for BrdU staining of pancreas sections. Positive BrdU staining indicates cell proliferation.
FIG. 12. BrdU staining in the duct areas of the pancreas. After 6 weeks FTY720 treatment, overnight fasted mice were given 1 mg/ml 5-bromo-2′deoxyuridine (BrdU) intraperitoneally. 24 hours later, mice were sacrificed for BrdU staining of pancreas sections.
FIG. 13. Insulin immunostaining in newly formed insulin containing cells and islets near duct (arrow) in the FTY720-treated db/db mice (Scale bar, 100 μm).
After overnight fasting, the mice were given 1 mg/ml of 5-bromo-2-deoxyuridine (BrdU) in PBS intraperitoneally. Mice were sacrificed 24 hours after BrdU injection and pancreases were removed and fixed with a 4% formaldehyde solution. The pancreases were then embedded in paraffin and sliced into 10 μm sections. Tissue sections were stained with the anti-BrdU monoclonal antibody provided in BrdU in Situ Detection Kit (BD Biosciences).

[5] = db/db mice after 6 weeks FTY720 treatment, no staining in untreated

S1P4 expression in islets (S1P4): significantly elevated
SMILES: CCCCCCCCc1ccc(CCC(N)(CO)CO)cc1 [FTY720, 2-amino-2-[2-(4-octylphenyl)ethyl]propane-1,3-diol]
PDX-1 expression relative to islets from untreated mice (PDX-1): 6 fold | glucose tolerance (db/db mice [1]): significantly improved | fasting serum insulin levels (db/db mice [2]): significantly elevated | cancer formation in phase III clinical trials [3]: without reported cancer formation | weight gain [4]: significantly higher | insulin-positive cells or small islets in the pancreatic duct area (beta-cell; FTY720-treated db/db mice, insulin immunostaining): identified | BrdU incorporation in the pancreatic duct area (beta-cell neogenesis) (beta-cell; [5]): BrdU incorporation was observed | BrdU staining within the islets (beta-cell proliferation) (beta-cell; [5]): BrdU-positive cells were easily observed
